One assay concerns Mouse Sarcoma 180. Briefly: Survival of mice with Sarcoma 180, amide with or without amplifier. Format: in vivo. As to conditions: i.p.; for T/C (1): control saline vehicle only.
The test system of assay [1] is Walker 256 carcinoma Sarcoma. As to the kind of experiment: Survival of rats with Walker 256 ascites tumour, amide with or without amplifier. Format: in vivo, Sprague Dawley rats. To be noted: for T/C (1): control saline vehicle only. As to the method:
This was given two 2-minute treatments with Boyle's fluid (9 vols. 0.83% NH4CI, 1 vol. Tris buffer, pH7.2). The cell suspension was counted on a haemocytometer using Turk's fluid and then diluted with Eagle's medium to 10^7 live cells per ml, and then 0.1 ml was injected intraperitoneally. Bacto-fluid Thiolglycollate Medium was used to test for contamination. Solutions of the phleomycins, bleomycins or tallysomycins were made up in phosphate-buffered saline at pH7.2 in daily doses at the commencement of each 5 day injection period and were kept frozen until the commencement of each day's injections. The injections were given at 9 a.m. and 4 p.m. […] Test groups usually comprised 7 or 8 animals.

Another assay relates to Ehrlich's Ascites Tumor. As to the kind of experiment: Survival of mice with Ehrlich's ascites tumor, amide with or without amplifier. It counts as in vivo. As to conditions: for T/C (1): control saline vehicle only.
Setting [2] is: Exp 3A, amplifier alone 1942 uKD.
The mark [3] stands for this setting: Exp 1A, amplifier alone 10.61 uKD.
The mark [4] stands for this setting: Exp 1A, amplifier alone 106.1 uKD.
[5] abbreviates: Exp 1B, amplifier alone 10.61 uKD.
The mark [6] stands for this setting: Exp 1B, amplifier alone 1061 uKD.
The mark [7] stands for this setting: Exp 1D, amplifier alone 10.61 uKD in minipumps.
The mark [8] stands for this setting: Exp 1D, amplifier alone 106.1 uKD in minipumps.
Setting [9] is: Exp 2A, i.p., amplifier alone 10.61 uKD.
[10] abbreviates: Exp 2A, i.p., amplifier alone 106.1 uKD.
Where [11] appears, read: Exp 2B, amplifier alone 10.61 uKD in drinking water.
Where [12] appears, read: Exp 2B, amplifier alone 106.1 uKD in drinking water.
Setting [13] is: Exp 2B, amplifier alone 1061 uKD in drinking water.
The mark [14] stands for this setting: Exp 3B, amplifier alone 675 uKD.
Setting [15] is: Exp 3C, amplifier alone 675 uKD.
The mark [16] stands for this setting: Exp 1C, amplifier alone 675 uKD.
The mark [17] stands for this setting: Exp 1E, amplifier alone 675 uKD.
Where [18] appears, read: Exp 2C, i.p., amplifier alone 675 uKD.
Setting [19] is: Exp 2C, i.p., amplifier alone 2025 uKD.

Take `Cn1c(=O)c2c(ncn2C)n(C)c1=O` [Caffeine, 1, 3, 7 trimethyl xanthene]: the M.S.T. with Mouse Sarcoma 180 (setting [2]) was determined as 17.0 days; in assay [1] (setting [3]), 8.0 days; in assay [1] (setting [4]) it was 8.0 days; in assay [1] (setting [5]), 7.0 days; in assay [1] (setting [6]), 8.0 days; in assay [1] (setting [7]), 10.0 days. The M.S.T. in assay [1] (setting [8]) was found to be 10.0 days; in the assay with Ehrlich's Ascites Tumor (setting [9]), 21.0 days; with Ehrlich's Ascites Tumor (setting [10]) it was 21.0 days; with Ehrlich's Ascites Tumor (setting [11]), 22.0 days; in the assay on Ehrlich's Ascites Tumor (setting [12]), 21.0 days; in the assay with Ehrlich's Ascites Tumor (setting [13]) it was 20.0 days. For the same compound, the “T/C (1)” value in the assay with Mouse Sarcoma 180 (setting [2]) is 106; in assay [1] (setting [3]), 89; in assay [1] (setting [4]), 89; in assay [1] (setting [5]), 93; in assay [1] (setting [6]) it was 107; in assay [1] (setting [7]), 95. The “T/C (1)” value turned out to be 95 in assay [1] (setting [8]); 93 in the assay with Ehrlich's Ascites Tumor (setting [9]); 93 in the assay on Ehrlich's Ascites Tumor (setting [10]); 119 in the assay with Ehrlich's Ascites Tumor (setting [11]); 113 with Ehrlich's Ascites Tumor (setting [12]); 108 with Ehrlich's Ascites Tumor (setting [13]).

Regarding Dimethylthiocyanine, the M.S.T. with Mouse Sarcoma 180 (setting [14]) came to 17.0 days; with Mouse Sarcoma 180 (setting [15]), 17.0 days; in assay [1] (setting [16]), 9.0 days; in assay [1] (setting [17]) it was 6.0 days; in the assay on Ehrlich's Ascites Tumor (setting [18]), 20.0 days; with Ehrlich's Ascites Tumor (setting [19]), 20.0 days. Also, the “T/C (1)” value worked out at 100 in the assay on Mouse Sarcoma 180 (setting [14]); 100 in the assay on Mouse Sarcoma 180 (setting [15]); 112 in assay [1] (setting [16]); 100 in assay [1] (setting [17]); 111 in the assay on Ehrlich's Ascites Tumor (setting [18]); 111 in the assay on Ehrlich's Ascites Tumor (setting [19]).

For the origin of these results see patent EP0055716B1, “AMPLIFIED ANTIBIOTIC AND ANTITUMOR AGENTS” (priority 1980, dated 1982).
